Source: ChEMBL document CHEMBL3593230, “Randainins A-D, Based on Unique Diterpenoid Architectures, from Callicarpa randaiensis” (J Nat Prod, 2015)
Activity calls are given as the source filed them. The rule behind the calls is not given here.

What was measured:
[1] = Cytotoxicity against human Hep2 cells incubated for 3 days by MTT assay; type: functional, cell-based; conditions: HEp-2, 72 h
[2] = Anti-inflammatory activity in human neutrophils assessed as inhibition of fMLP/CB-induced superoxide anion generation incubated for 5 mins followed by fMLP/CB stimulation for 10 mins by spectrophotometry; type: functional, cell-based, Neutrophil
MCF7 = assay: Cytotoxicity against human MCF7 incubated for 3 days by MTT assay; type: functional, cell-based; conditions: MCF7, 72 h
Neutrophil = assay: Anti-inflammatory activity in human neutrophils assessed as inhibition of fMLP/CB-induced elastase release incubated for 5 mins followed by fMLP/CB stimulation using MeO-Suc-Ala-Ala-Pro-Val-p-nitroanilide substrate; type: functional, cell-based
HepG2 = assay: Cytotoxicity against human HepG2 cells incubated for 3 days by MTT assay; type: functional, cell-based; conditions: HepG2, 72 h
A549 = assay: Cytotoxicity against human A549 cells incubated for 3 days by MTT assay; type: functional, cell-based; conditions: A549, 72 h
[3] = Anti-inflammatory activity in human neutrophils assessed as inhibition of fMLP/CB-induced elastase release at 28.6 uM incubated for 5 mins followed by fMLP/CB stimulation using MeO-Suc-Ala-Ala-Pro-Val-p-nitroanilide substrate; type: functional; conditions: Neutrophil

SMILES | IC50 [1] | IC50 ([2]; neutrophil) | IC50 (MCF7) | inhibition (Neutrophil) | IC50 (HepG2) | IC50 (A549) | IC50 ([2]; Homo sapiens, Neutrophil, read-out: IC50) | inhibition at 28.6 µM [3]
C[C@@H]1C[C@H]2C(=O)C(C)(C)[C@H](OC=O)CC[C@]2(O)[C@@]1(C)CCC1=CC(=O)OC1 | > 10 µM | Not Active | > 10 µM | inactive | > 10 µM | > 10 µM | – | –
C[C@@H]1C[C@H]2C(=O)C(C)(C)[C@H](O)CC[C@]2(O)[C@@]1(C)CCC1=CC(=O)OC1 | > 10 µM | Not Active | > 10 µM | inactive | > 10 µM | > 10 µM | – | –
C[C@@H]1CC[C@@]2(O)[C@@H](C[C@@H](O)C2(C)C)C(=O)[C@@]1(C)CCC1=CC(=O)OC1 | > 10 µM | Not Active | > 10 µM | inactive | > 10 µM | > 10 µM | – | –
C[C@@H]1CC[C@]2(O)[C@H](C[C@@H](O)C2(C)C)C(=O)[C@@]1(C)CCC1=CC(=O)OC1 | > 10 µM | – | > 10 µM | – | > 10 µM | > 10 µM | 21.5 µM | 35.9%
